Key:
Type in all cases: physicochemical
[1] = Solubility by eye observation with stepwise addition of solution; settings: thermodynamic from solid
Method: (§1) Each of the solutions (0.1 mL) shown in Table 1 was added to compound A1 hydrochloride (about 2 mg), and solubility was confirmed with eye observation. When insoluble materials were recognized, the solution (0.1 mL) was further added, and solubility was confirmed by eye observation in the same manner. When insoluble materials were still recognized, the solution was thereafter added in the amounts of 0.05 mL, 0.15 mL, 0.4 mL, 0.4 mL, 0.4 mL and 0.4 mL, respectively in this order, and solubility was confirmed by eye observation. The concentration of the compound A1 hydrochloride determined from the total amount of the solution added up to the time point at which insoluble materials were not recognized, was taken as the solubility.
as §1, with “Table 2” for “Table 1”
as §1, with “Table 3” for “Table 1”
as §1, with “Table 4” for “Table 1”

[2] = Saturation solubility, shaken 18 hours at 5° C., filtered, HPLC; settings: thermodynamic from solid, 40 mM Citric acid, NaOH, as free form
Method: To each of the various solutions shown in Table 6, compound A1 hydrochloride was added in an amount exceeding the saturation concentration, and the mixture was shaken for 18 hours at 5° C.

[3] = Saturation solubility, shaken 18 hours at 25° C., filtered, HPLC; settings: thermodynamic from solid, 40 mM Citric acid
Method: To each of the various solutions shown in Table 5, compound A1 hydrochloride was added in an amount exceeding the saturation concentration, and the mixture was shaken for 18 hours at 25° C.

With `CCS(=O)(=O)c1cccc(-c2cc(C(=O)NC3CCN(C)CC3)c(C)c3[nH]c4ncc(C)cc4c23)c1.Cl` [compound A1 hydrochloride, 5-(3-(ethylsulfonyl)phenyl)-3,8-dimethyl-N-(1-methylpiperidin-4-yl)-9H-pyrido[2,3-b]indole-7-carboxamide hydrochloride] the solubility ([1]; 5 w/v % D-mannitol in water for injection, saline or isotonic) was ~1100 µg/mL, the solubility ([1]; 5 w/v % D-sorbitol in water for injection, saline or isotonic) was ~1300 µg/mL and the solubility ([1]; 5 w/v % glucose in water for injection, saline or isotonic) was ~1300 µg/mL. For the same molecule, the solubility ([1]; 10 w/v % Dextran 40 in water for injection, aqueous with cosolvent or surfactant or cyclodextrin) was < 1300 µg/mL, the solubility ([1]; 10 w/v % Polysorbate 20 in water for injection, aqueous with cosolvent or surfactant or cyclodextrin) was ~1800 µg/mL and the solubility ([1]; 10 w/v % Polysorbate 80 in water for injection, aqueous with cosolvent or surfactant or cyclodextrin) was ~2200 µg/mL. For the same molecule, the solubility ([1]; 10 w/v % maltose in water for injection, saline or isotonic) was ~1400 µg/mL, the solubility ([1]; 10 w/v % sucrose in water for injection, saline or isotonic) was ~1200 µg/mL and the solubility ([1]; 30 w/v % maltosyl-β-cyclodextrin in water for injection, aqueous with cosolvent or surfactant or cyclodextrin) was ~10800 µg/mL. For the same molecule, the solubility ([1]; aqueous with cosolvent or surfactant or cyclodextrin, 30 w/v % 2-Hydroxypropyl-β-cyclodextrin in water for injection) was ~10400 µg/mL, the solubility ([1]; aqueous with cosolvent or surfactant or cyclodextrin, 30 w/v % Sulfobutyl ether-β-cyclodextrin sodium salt (Captisol, clinical grade) in water for injection) was ~9200 µg/mL and the solubility ([1]; citric acid buffer solution, pH 2, aqueous buffer, 100 mM Citric acid buffer solution pH 2) was ~2100 µg/mL. The solubility ([1]; citric acid buffer solution, pH 3, aqueous buffer, 100 mM Citric acid buffer solution pH 3) was ~1000 µg/mL, the solubility ([1]; citric acid buffer solution, pH 4, aqueous buffer, 100 mM Citric acid buffer solution pH 4) was < 1300 µg/mL and the solubility ([1]; citric acid buffer solution, pH 5, aqueous buffer, 100 mM Citric acid buffer solution pH 5) was < 1300 µg/mL. For the same molecule, the solubility ([1]; citric acid buffer solution, pH 7, aqueous buffer, 100 mM Citric acid buffer solution pH 7) was < 1200 µg/mL, the solubility ([1]; citric acid buffer solution, pH 9, aqueous buffer, 100 mM Citric acid buffer solution pH 9) was < 1200 µg/mL and the solubility ([1]; citric acid buffer solutions, aqueous buffer, citric acid buffer solutions of Table 1) was < 8000 µg/mL. For the same molecule, the solubility ([1]; cyclodextrin derivative solutions, aqueous with cosolvent or surfactant or cyclodextrin, all cyclodextrin derivative solutions shown in Table 4) was ≥ 8000 µg/mL, the solubility ([1]; ethanol, organic solvent or mixture, 100 w/v % Ethanol) was < 1200 µg/mL and the solubility ([1]; polyethylene glycol 300, organic solvent or mixture, 100 w/v % Polyethylene glycol 300) was < 1100 µg/mL. The solubility ([1]; polyethylene glycol 400, organic solvent or mixture, 100 w/v % Polyethylene glycol 400) was < 1300 µg/mL, the solubility ([1]; solutions of solubilizers, aqueous with cosolvent or surfactant or cyclodextrin, solutions of solubilizers in Table 3) was < 8000 µg/mL and the solubility ([1]; solutions of sugars, saline or isotonic, solutions of sugars in Table 2) was < 8000 µg/mL. For the same molecule, the solubility ([1]; soybean oil, oil or lipid, 100 w/v % Soybean oil) was < 1200 µg/mL, the solubility ([1]; water for injection, water) was < 1200 µg/mL and the solubility at 18 h ([2]; citric acid solution in water for injection, pH 4, aqueous buffer, water for injection) was 100 µg/mL. The solubility at 18 h ([2]; pH 4, aqueous with cosolvent or surfactant or cyclodextrin, 2.5 w/v % Sulfobutyl ether-β-cyclodextrin sodium salt) was 13000 µg/mL, the solubility at 18 h ([2]; pH 4, aqueous with cosolvent or surfactant or cyclodextrin, 5 w/v % Sulfobutyl ether-β-cyclodextrin sodium salt) was 20900 µg/mL and the solubility at 18 h ([2]; pH 4, aqueous with cosolvent or surfactant or cyclodextrin, 7.5 w/v % Sulfobutyl ether-β-cyclodextrin sodium salt) was 27600 µg/mL. The solubility at 18 h ([2]; pH 4, aqueous with cosolvent or surfactant or cyclodextrin, 10 w/v % Sulfobutyl ether-β-cyclodextrin sodium salt) was 32800 µg/mL, the solubility at 18 h ([2]; pH 4, aqueous with cosolvent or surfactant or cyclodextrin, 12 w/v % Sulfobutyl ether-β-cyclodextrin sodium salt) was 35400 µg/mL and the solubility at 18 h ([2]; pH 4, aqueous with cosolvent or surfactant or cyclodextrin, 20 w/v % Sulfobutyl ether-β-cyclodextrin sodium salt) was 43600 µg/mL. The solubility at 18 h ([2]; pH 4, aqueous with cosolvent or surfactant or cyclodextrin, 30 w/v % Sulfobutyl ether-β-cyclodextrin sodium salt) was 49900 µg/mL, the solubility at 18 h ([3]; aqueous with cosolvent or surfactant or cyclodextrin, 5 w/v % Sulfobutyl ether-β-cyclodextrin sodium salt (Captisol, research grade), HCl, pH 2.5, as free form) was 29200 µg/mL and the solubility at 18 h ([3]; aqueous with cosolvent or surfactant or cyclodextrin, 5 w/v % Sulfobutyl ether-β-cyclodextrin sodium salt (Captisol, research grade), NaOH, pH 4, as free form) was 24500 µg/mL. It also gave a solubility at 18 h ([3]; aqueous with cosolvent or surfactant or cyclodextrin, 5 w/v % Sulfobutyl ether-β-cyclodextrin sodium salt (Captisol, research grade), NaOH, pH 5, as free form) of 22900 µg/mL, a solubility at 18 h ([3]; citric acid solution in water for injection, aqueous buffer, water for injection, HCl, pH 2.5, as compound A1 (free form)) of 8000 µg/mL and a solubility at 18 h ([3]; citric acid solution in water for injection, aqueous buffer, water for injection, NaOH, pH 4, as free form) of 300 µg/mL. It also gave a solubility at 18 h ([3]; citric acid solution in water for injection, aqueous buffer, water for injection, NaOH, pH 5, as free form) of 100 µg/mL.
